Assay results taken from ChEMBL document CHEMBL3861949 (Medchemcomm, 2016).

Experiments:
[1] = Cytotoxicity against human MRC5 cells; format: toxicity, cell-based
[2] = tested on: Saccharomyces cerevisiae; assay: Ratio of IC50 for Saccharomyces cerevisiae wild type KRS1 to IC50 for Saccharomyces cerevisiae KRS1 Gln324Val/Thr340Ser mutant
[3] = tested on: Saccharomyces cerevisiae; assay: Ratio of IC50 for Saccharomyces cerevisiae wild type KRS1 to IC50 for Saccharomyces cerevisiae KRS1 Gln324Val mutant
[4] = Inhibition of Plasmodium falciparum Lysyl-tRNA ligase expressed in Escherichia coli Tuner (DE3) cells assessed as suppression of L-lysine-tRNA(Lys) formation in presence of AMP-Alexa633 tracer after 4 hrs by fluorescence polarization assay
[5] = Selectivity ratio of IC50 for human Lysyl-tRNA ligase to IC50 for Plasmodium falciparum Lysyl-tRNA ligase
[6] = tested on: Saccharomyces cerevisiae; assay: Ratio of IC50 for Saccharomyces cerevisiae wild type KRS1 to IC50 for Saccharomyces cerevisiae KRS1 Thr340Ser mutant
[7] = tested on: Plasmodium berghei; assay: Antimalarial activity against liver stage of Plasmodium berghei ANKA; format: functional
[8] = Inhibition of bovine liver TrpRS assessed as suppression of L-[5-3H]tryptophanyl-tRNA formation after 10 mins by liquid scintillation counting method; design: species or system Bos taurus
[9] = Inhibition of Escherichia coli TrpRS assessed as suppression of L-[5-3H]tryptophanyl-tRNA formation after 10 mins by liquid scintillation counting method
[10] = molecular target: Isoleucine--tRNA ligase (Thermus thermophilus (strain HB8 / ATCC 27634 / DSM 579), UniProt P56690, H581L/L583H); assay: Inhibition of recombinant Thermus thermophilus HB8 IleRS H581L/L583H double mutant assessed as suppression of L-[14C]isoleucyl-tRNA(Ile) formation
Isoleucine--tRNA ligase (Thermus thermophilus (strain HB8 / ATCC 27634 / DSM 579), UniProt P56690, H581L/L583H), sequence (P56690 whole entry H581L/L583H): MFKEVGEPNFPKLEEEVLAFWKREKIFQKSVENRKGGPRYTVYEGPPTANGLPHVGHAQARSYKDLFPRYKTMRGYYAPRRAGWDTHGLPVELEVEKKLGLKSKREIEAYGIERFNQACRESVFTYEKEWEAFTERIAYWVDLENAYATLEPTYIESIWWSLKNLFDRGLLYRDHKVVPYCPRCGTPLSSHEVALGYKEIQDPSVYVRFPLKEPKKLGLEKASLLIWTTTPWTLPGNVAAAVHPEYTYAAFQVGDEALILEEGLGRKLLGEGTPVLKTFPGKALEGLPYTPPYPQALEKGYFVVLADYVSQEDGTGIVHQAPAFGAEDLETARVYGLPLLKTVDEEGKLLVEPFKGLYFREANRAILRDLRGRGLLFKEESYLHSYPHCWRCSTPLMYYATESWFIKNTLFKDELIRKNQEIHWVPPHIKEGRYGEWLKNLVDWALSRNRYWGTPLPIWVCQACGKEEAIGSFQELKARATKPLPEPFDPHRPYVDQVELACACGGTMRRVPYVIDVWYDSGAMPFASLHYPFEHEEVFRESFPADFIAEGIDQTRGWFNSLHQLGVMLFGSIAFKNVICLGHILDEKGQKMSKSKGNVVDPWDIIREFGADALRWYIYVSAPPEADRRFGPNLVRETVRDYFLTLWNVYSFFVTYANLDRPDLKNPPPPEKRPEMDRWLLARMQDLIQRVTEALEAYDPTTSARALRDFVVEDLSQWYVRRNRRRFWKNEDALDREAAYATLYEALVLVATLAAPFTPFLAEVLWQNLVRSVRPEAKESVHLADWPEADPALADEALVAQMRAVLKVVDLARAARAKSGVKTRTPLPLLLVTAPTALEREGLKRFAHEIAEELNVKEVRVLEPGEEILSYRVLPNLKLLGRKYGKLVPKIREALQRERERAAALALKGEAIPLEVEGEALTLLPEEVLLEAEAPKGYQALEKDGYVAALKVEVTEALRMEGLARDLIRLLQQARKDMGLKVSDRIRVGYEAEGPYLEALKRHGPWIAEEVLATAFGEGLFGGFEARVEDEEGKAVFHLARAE

[11] = molecular target: Isoleucine--tRNA ligase (Thermus thermophilus (strain HB8 / ATCC 27634 / DSM 579), UniProt P56690, H581N/L583F); assay: Inhibition of recombinant Thermus thermophilus HB8 IleRS H581N/L583F double mutant assessed as suppression of L-[14C]isoleucyl-tRNA(Ile) formation
Isoleucine--tRNA ligase (Thermus thermophilus (strain HB8 / ATCC 27634 / DSM 579), UniProt P56690, H581N/L583F), sequence (P56690 whole entry H581N/L583F): as the sequence (P56690 whole entry H581L/L583H) above, with L581N, H583F counted along it

[12] = molecular target: Isoleucine--tRNA ligase (Thermus thermophilus (strain HB8 / ATCC 27634 / DSM 579), UniProt P56690, H581S/L583I); assay: Inhibition of recombinant Thermus thermophilus HB8 IleRS H581S/L583I double mutant assessed as suppression of L-[14C]isoleucyl-tRNA(Ile) formation
Isoleucine--tRNA ligase (Thermus thermophilus (strain HB8 / ATCC 27634 / DSM 579), UniProt P56690, H581S/L583I), sequence (P56690 whole entry H581S/L583I): as the sequence (P56690 whole entry H581L/L583H) above, with L581S, H583I counted along it

[13] = molecular target: T1, Isoleucine--tRNA ligase (Thermus thermophilus (strain HB8 / ATCC 27634 / DSM 579), UniProt P56690); assay: Inhibition of recombinant Thermus thermophilus HB8 wild type IleRS assessed as suppression of L-[14C]isoleucyl-tRNA(Ile) formation
T1 sequence (P56690 whole entry): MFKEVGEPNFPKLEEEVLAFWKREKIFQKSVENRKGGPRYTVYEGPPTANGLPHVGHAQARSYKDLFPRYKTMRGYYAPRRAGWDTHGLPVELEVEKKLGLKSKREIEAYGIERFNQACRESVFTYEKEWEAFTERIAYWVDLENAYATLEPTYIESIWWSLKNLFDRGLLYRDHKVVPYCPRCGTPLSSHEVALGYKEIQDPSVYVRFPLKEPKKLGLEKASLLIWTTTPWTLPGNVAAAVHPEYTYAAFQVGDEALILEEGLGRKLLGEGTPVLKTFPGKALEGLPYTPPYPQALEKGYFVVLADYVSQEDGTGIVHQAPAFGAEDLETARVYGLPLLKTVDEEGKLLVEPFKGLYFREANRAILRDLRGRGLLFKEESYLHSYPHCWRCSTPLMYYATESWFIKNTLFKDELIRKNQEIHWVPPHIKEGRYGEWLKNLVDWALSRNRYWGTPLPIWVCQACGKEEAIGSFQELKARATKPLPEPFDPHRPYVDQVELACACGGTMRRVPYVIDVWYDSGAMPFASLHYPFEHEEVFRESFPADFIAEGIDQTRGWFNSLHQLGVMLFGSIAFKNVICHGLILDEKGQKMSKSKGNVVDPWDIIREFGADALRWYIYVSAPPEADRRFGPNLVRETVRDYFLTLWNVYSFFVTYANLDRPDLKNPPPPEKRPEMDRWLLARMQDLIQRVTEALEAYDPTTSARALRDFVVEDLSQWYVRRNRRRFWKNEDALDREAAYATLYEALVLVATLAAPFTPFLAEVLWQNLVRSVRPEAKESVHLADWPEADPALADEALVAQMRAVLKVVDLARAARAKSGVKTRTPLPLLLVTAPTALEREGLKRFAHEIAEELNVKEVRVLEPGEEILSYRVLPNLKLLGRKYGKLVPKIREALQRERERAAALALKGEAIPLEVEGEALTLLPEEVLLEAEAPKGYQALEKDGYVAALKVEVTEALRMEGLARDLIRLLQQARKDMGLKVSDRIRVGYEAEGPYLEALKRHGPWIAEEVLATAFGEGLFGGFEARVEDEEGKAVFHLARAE

[14] = molecular target: Isoleucine--tRNA ligase (Thermus thermophilus (strain HB8 / ATCC 27634 / DSM 579), UniProt P56690, L583F); assay: Inhibition of recombinant Thermus thermophilus HB8 IleRS L583F mutant assessed as suppression of L-[14C]isoleucyl-tRNA(Ile) formation
Isoleucine--tRNA ligase (Thermus thermophilus (strain HB8 / ATCC 27634 / DSM 579), UniProt P56690, L583F), sequence (P56690 whole entry L583F): as the sequence (P56690 whole entry H581L/L583H) above, with L581H, H583F counted along it

Q: Which Activity [1] does the source give for `C[C@@H]1C[C@H](C)C[C@H](C)[C@@H](O)CC(=O)O[C@H]([C@@H]2CCC[C@H]2C(=O)OCc2cn(CSc3ccccc3)nn2)C/C=C/C=C(/C#N)[C@H](O)[C@@H](C)C1` here?
A: 16800 ng/mL

Q: Which results are given for `C[C@H]1CCC[C@H](CC2Cc3cc(O)cc(O)c3C(=O)O2)O1` (stereo partly specified)?
A: Ratio IC50 [2]: 38.7; Ratio IC50 [3]: 5.7; IC50 [4]: 0.04 µM; Ratio IC50 [5]: > 100; Ratio IC50 [6]: 10.4

Q: For `O=c1c2cc(Cl)c(Br)cc2ncn1C[C@@H](O)C[C@H]1NCCC[C@@H]1O`, which EC50 [7] is on record?
A: 0.014 µM

Q: Which Activity [1] does the source give for `C[C@@H]1C[C@H](C)C[C@H](C)[C@@H](O)CC(=O)O[C@H]([C@@H]2CCC[C@H]2C(=O)O)C/C=C/C=C(/C#N)[C@H](O)[C@@H](C)C1` [BORRELIDIN] here?
A: 201 ng/mL

Q: For `O=C(CC1NCCCC1O)Cn1cnc2cc(Br)c(Cl)cc2c1=O` (stereo unspecified) [HALOFUGINONE], which EC50 [7] is on record?
A: 0.017 µM

Q: What does the source list for `CNC1=NC(=O)[C@H]([C@H](C)c2c[nH]c3ccccc23)O1` [INDOMYCIN]?
A: IC50 [8]: 4040 µM; IC50 [9]: 0.00925 µM

Q: Which results are given for `C/C(=C\C(=O)OCCCCCCCCC(=O)O)C[C@@H]1OC[C@H](C[C@@H]2O[C@H]2[C@@H](C)[C@H](C)O)[C@@H](O)[C@H]1O` [MUPIROCIN]?
A: Ki [10]: 2.31 µM; Ki [11]: 2.73 µM; Ki [12]: 15 µM; Ki [13]: 0.25 µM; Ki [14]: 0.06 µM
